≈ marks a conversion by molar mass, not a printed value. Where two headings read alike, the source gives them in different places.
Key:
[1] = cited from earlier work; for logK, pKa3: H2L2− + H+ ⇋ H3L−; for logK, pKa2: H3L− + H+ ⇋ H4L; for logK, pKa1: H4L + H+ ⇋ H5L+; for logK, pKa4: HL3− + H+ ⇋ H2L2−; for logK, pKa5: L4− + H+ ⇋ HL3−
[2] = Thermal analysis (TG/DTA and TGA 7); format: physicochemical; conditions: for Td: 5 °C/min; for Temp. range of 1st cleavage: lower limit taken at 0.5 wt-%
[3] = Aqueous solubility of saturated solution at 21 °C (phosphorus determination by molybdenum blue spectrophotometry)
Description: A Jasco V-530 UV/Vis spectrophotometer was used for phosphorus determination at 880 nm wavelength. Filtered liquid samples were diluted to the appropriate volume with Milli-Q water and were digested with the persulphate oxidation technique in acidic medium at elevated temperature to convert aminobisphosponates to orthophosphate. In an acidic medium, ammonium molybdate and antimony potassium tartrate react with orthophosphate to form a phosphomolybdic acid that is reduced to intensively colored molybdenum blue by ascorbic acid [30].
The mixture containing an excess of the studied compound was first agitated for predetermined time with magnetic stirrer and before taking the sample mixture was allowed to stand for 24 h without stirring. The sample (about 5 mL) was taken from liquid above the solids, pH was measured and the sample was filtered through 0.2 µm membrane filter to remove any possible insoluble particles. The phosphorus concentration in the filtered sample solution was determined by using the spectrophotometric method described above.

[4] = pKa determination with Sirius instrument (PCA200)
[5] = Protonation constants by (traditional) potentiometric titration (TPT), SUPERQUAD; conditions: 0.1 M NaNO3, 25 °C; for pKa: aqueous 0.1 M NaNO3, log K, TPT
Text: Results were obtained from […] as overall stability constants (log β values); following the chosen zero level H2L^2−. This zero level H2L^2− was chosen in the calculations to avoid any accumulation of errors of protonation constants at different pH ranges. The log β results for reactions (4) and (5) obtained in the final refinements are listed in Table S3 (see Supporting Information) with error limits (±3σ), number of points/number of titrations and χ^2/Σ statistics.
The details of the experiments using (traditional) potentiometric titration are presented in the Supporting Information. The results of the determination by Sirius instrument are shown in the Supporting Information. Potentiometric titrations of the compounds were performed with the PCA200 apparatus (Sirius Analytical Instruments Ltd, Forest Row, East Sussex, UK).
Table S2. The effect of pH on aqueous solubility (mg/L) of aminoalkylbis(phosphonates) […]
Solubility (g/L) of Compound
Determination of the Protonation Constants Using (traditional) Potentiometric Titration. Reagents:
Aqueous 0.1 M NaOH was prepared from Titrisol ampoules (Merck) and 0.1 M HNO3 from Convol ampoules (BDH). The background solution was prepared by dissolving NaNO3 in deionised water.
The NaNO3 and NaCl used in reference electrode were p.a. grade (Merck). The water used in the dilutions and titration solutions was purified with Milli-RO and Milli-Q water purification systems […]
Potentiometric measurements: The protonation equilibria was studied in aqueous 0.1 M NaNO3 at 25.0 ± 0.1 °C through a series of potentiometric EMF titrations carried out with a Schott-Geräte GmbH […]
The cell arrangement for the measurement of the hydrogen ion concentration [H+] was as follows:
−RE […] equilibrium solution […] GE+ (1) where GE denotes a glass electrode (Schott N2680), and RE is Hg, Hg2Cl2 […] 0.01 M NaCl, 0.09 M NaNO3. Expression (2) is valid assuming that the activity coefficients are constant.
The cell parameter E0 and the liquid junction coefficient jH, valid in acidic solutions, were determined for each titration by adding a known amount of HNO3 to the background electrolyte. The value of the liquid junction coefficient jOH, valid in basic solutions, was determined periodically. Only stable EMF readings were used in the calculations.
During the measurements of the protonation equilibria, aqueous 0.1 M NaOH or 0.1 M HNO3 was […]
Four to eight independent titrations were carried out for each ligand. The number of data points used in […]
Data treatment: Protonation and deprotonation of the ligands were controlled by addition of HNO3 or NaOH. The curves of ZH versus pH were drawn to visualize the experimental data sets. ZH describes the average number of H+ ions added or liberated per mole of ligand and is given by the relationship […]
where CH denotes the total concentration of protons calculated over the zero level H2L2−.
In the evaluation of the equilibrium constants, the following two-component equilibria were utilized:
H2L2− ⇋ H2-xL(2+x)– + xH+ , x = 1–2; β–x (4) xH+ + H2L2− ⇋ Hx+2Lx–2, x = 1–3; βx (5)
Mathematical analysis of the systems involves a search for protonation models and equilibrium constants that best describe the experimental data. The calculations were carried out with the computer […]
1200). The sample standard deviation Σ and the χ2 statistics used as criteria in the selection of the models were those provided by the program. As a means to improve the confidence level, the error limits for log β values determined in this study are reported as three times the standard deviation estimated by the program.
Figure S2. ZH vs. pH for protonation of compounds (a) 1; (b) 2; (c) 3; (d) 4 and (e) 5.

[6] = overall protonation, zero level H2L2−

SMILES: NCCC(O)(P(=O)(O)O)P(=O)(O)O [Compound 1, (3-Amino-1-hydroxypropylidene)bisphosphonic acid]
- logK, pKa3 ([1]; first Ref.18 column): 6.01
- logK, pKa3 ([1]; ref 4): 5.86
- logK, pKa3 ([1]; ref 13): 5.83
- logK, pKa3 ([1]; ref 14): 5.85
- logK, pKa3 ([1]; ref 15): 6.01
- logK, pKa3 ([1]; ref 17): 6.04
- logK, pKa3 ([1]; second Ref.18 column): 5.39
- logK, pKa2 ([1]; ref 4): 2.04
- logK, pKa2 ([1]; ref 13): 2.55
- logK, pKa2 ([1]; ref 14): 1.80
- logK, pKa2 ([1]; ref 15): 2.56
- logK, pKa2 ([1]; ref 17): 1.93
- logK, pKa1 ([1]; ref 14): <1.2
- logK, pKa1 ([1]; ref 17): 1.24
- logK, pKa4 ([1]; first Ref.18 column): 9.97
- logK, pKa4 ([1]; ref 4): 9.90
- logK, pKa4 ([1]; ref 13): 9.9
- logK, pKa4 ([1]; ref 14): 10.30
- logK, pKa4 ([1]; ref 15): 9.80
- logK, pKa4 ([1]; ref 17): 10.18
- logK, pKa4 ([1]; second Ref.18 column): 9.46
- logK, pKa5 ([1]; first Ref.18 column): 10.74
- logK, pKa5 ([1]; ref 4): 11.02
- logK, pKa5 ([1]; ref 13): 10.8
- logK, pKa5 ([1]; ref 14): 13.06
- logK, pKa5 ([1]; ref 15): 10.95
- logK, pKa5 ([1]; ref 17): 12.14
- logK, pKa5 ([1]; second Ref.18 column): 10.40
- Onset temperature of first cleavage ([2]; TG/DTA, higher crucible): 149 °C
- Td ([2]; TG/DTA, higher crucible, air): 149 °C
- Temp. range of 1st cleavage ([2]; TG/DTA, higher crucible): 134–199 °C
- Onset temperature of first cleavage ([2]; TGA 7, shallow crucible): 155 °C
- Td ([2]; TGA 7, shallow crucible, air): 155 °C
- Temp. range of 1st cleavage ([2]; TGA 7, shallow crucible): 102–203 °C
- Td (decomposition onset) ([2]; average from both instruments, air, heating rate 5 °C/min): 152 °C
- temperature of first decomposition step (cleavage of amino group / degradation) ([2]; thermogravimetry, air): 100–200 °C
- solubility at 30 min ([3]; Milli-Q water, unbuffered, 21 °C, water, thermodynamic from solid): 10.9 mg/mL (≈ 46.5 mM)
- pH of saturated solution ([3]; saturated aqueous solution, 21 °C, agitation time 30 min): 4.62
- water solubility (in words) ([3]; water): almost freely soluble
- pKa 2 (Sirius) [4]: 2.32
- pKa 3 (Sirius) [4]: 5.93
- pKa 4 (Sirius) [4]: 10.05
- pKa 5 (Sirius) [4]: 12.54
- pKa ([5]; pKa1 (H4L + H+ ⇋ H5L+), approximate values): 1.06
- pKa ([5]; pKa2 (H3L− + H+ ⇋ H4L)): 1.7
- pKa ([5]; pKa3 (H2L2− + H+ ⇋ H3L−)): 5.9
- pKa ([5]; pKa4 (HL3− + H+ ⇋ H2L2−)): 10
- pKa ([5]; pKa5 (L4− + H+ ⇋ HL3−)): 12.9
- logβx ± 3σ, x = 1 (H3L−) [5, 6]: 5.90 ± 0.02
- logβx ± 3σ, x = 2 (H4L) [5, 6]: 7.60 ± 0.05
- logβx ± 3σ, x = 3 (H5L+) [5, 6]: 8.66 ± 0.30
- logβx ± 3σ, x = −1 (HL3−) [5, 6]: −10.04 ± 0.03
- logβx ± 3σ, x = −2 (L4−) [5, 6]: −22.90 ± 0.23

Source: publication PMC6268373, “Systematic Study of the Physicochemical Properties of a Homologous Series of Aminobisphosphonates” (Molecules, 2012)
